# Laboratory results published in PMC11233931, “Remodeling tumor‐associated macrophage for anti‐cancer effects by rational design of irreversible inhibition of mitogen‐activated protein kinase‐activated protein kinase 2” (MedComm, 2024).
# Assays:
# Assay in all cases: Eurofins kinase selectivity profile against 380 other human recombinant kinases (Table S2)
# Format in all cases: biochemical
# [1] = biological target: T1, 380 human recombinant protein kinases (Homo sapiens, UniProt O15146); conditions: MuSK(h), read-out: Inhibition rate
# T1 construct: purchased Eurofins (Celle Lévescault)
# T1 sequence (O15146 24-869): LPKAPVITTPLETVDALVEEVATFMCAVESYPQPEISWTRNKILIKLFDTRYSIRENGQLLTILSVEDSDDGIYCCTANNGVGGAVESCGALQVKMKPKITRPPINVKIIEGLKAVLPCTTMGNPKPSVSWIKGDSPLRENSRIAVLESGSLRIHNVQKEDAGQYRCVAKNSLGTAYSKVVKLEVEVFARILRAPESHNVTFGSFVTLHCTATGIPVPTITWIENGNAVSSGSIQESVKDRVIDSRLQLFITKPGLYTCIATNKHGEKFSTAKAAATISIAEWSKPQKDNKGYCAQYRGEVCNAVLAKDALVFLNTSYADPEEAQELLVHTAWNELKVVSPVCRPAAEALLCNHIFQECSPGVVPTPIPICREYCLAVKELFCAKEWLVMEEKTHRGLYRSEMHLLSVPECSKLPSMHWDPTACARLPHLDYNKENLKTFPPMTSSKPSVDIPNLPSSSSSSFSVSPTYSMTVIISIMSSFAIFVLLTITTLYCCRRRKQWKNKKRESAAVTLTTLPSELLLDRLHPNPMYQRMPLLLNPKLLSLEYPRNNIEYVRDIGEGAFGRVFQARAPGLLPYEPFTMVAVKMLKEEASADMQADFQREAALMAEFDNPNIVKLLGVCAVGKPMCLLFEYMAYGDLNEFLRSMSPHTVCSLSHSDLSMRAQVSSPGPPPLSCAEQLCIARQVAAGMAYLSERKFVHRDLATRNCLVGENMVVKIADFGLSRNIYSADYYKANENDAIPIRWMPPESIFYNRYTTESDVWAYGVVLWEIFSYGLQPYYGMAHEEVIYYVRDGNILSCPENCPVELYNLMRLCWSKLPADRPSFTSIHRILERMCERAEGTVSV
# Procedure, shortened: (§1)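 The inhibitor was sent to a contract lab and screened at various concentrations against 380 human recombinant protein kinases. This served as a counter-screen for MK2 specificity.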
# [2] = biological target: T2, 380 human recombinant protein kinases (Homo sapiens, UniProt P17252); conditions: PKCα(h), read-out: Inhibition rate
# T2 construct: purchased Eurofins (Celle Lévescault)
# Procedure, shortened: as §1
# [3] = biological target: T3, 380 human recombinant protein kinases (Homo sapiens, UniProt P24723); conditions: PKCη(h), read-out: Inhibition rate
# T3 construct: purchased Eurofins (Celle Lévescault)
# Procedure, shortened: as §1
# [4] = biological target: T4, 380 human recombinant protein kinases (Homo sapiens, UniProt P51956); conditions: NEK3(h), read-out: Inhibition rate
# T4 construct: purchased Eurofins (Celle Lévescault)
# T4 sequence (P51956 1-506): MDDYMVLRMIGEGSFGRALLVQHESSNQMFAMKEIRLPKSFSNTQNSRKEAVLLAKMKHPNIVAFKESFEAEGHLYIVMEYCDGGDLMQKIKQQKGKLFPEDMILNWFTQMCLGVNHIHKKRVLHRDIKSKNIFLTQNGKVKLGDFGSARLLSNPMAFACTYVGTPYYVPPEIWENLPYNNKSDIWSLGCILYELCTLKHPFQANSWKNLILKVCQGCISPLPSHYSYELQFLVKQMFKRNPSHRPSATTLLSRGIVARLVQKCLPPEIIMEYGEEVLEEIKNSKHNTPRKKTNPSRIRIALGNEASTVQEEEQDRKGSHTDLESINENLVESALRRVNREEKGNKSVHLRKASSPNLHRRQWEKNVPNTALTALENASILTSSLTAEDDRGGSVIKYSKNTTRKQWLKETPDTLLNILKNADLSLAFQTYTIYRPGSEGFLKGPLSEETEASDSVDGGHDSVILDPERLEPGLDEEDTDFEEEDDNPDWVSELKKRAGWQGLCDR
# Procedure, shortened: as §1
# [5] = biological target: T5, 380 human recombinant protein kinases (Homo sapiens, UniProt P53667); conditions: LIMK1(h), read-out: Inhibition rate
# T5 construct: purchased Eurofins (Celle Lévescault)
# Procedure, shortened: as §1
# [6] = biological target: T6, 380 human recombinant protein kinases (Homo sapiens, UniProt Q00534); conditions: CDK6/cyclinD3(h), read-out: Inhibition rate
# T6 construct: purchased Eurofins (Celle Lévescault)
# Procedure, shortened: as §1
# [7] = biological target: T7, 380 human recombinant protein kinases (Homo sapiens, UniProt Q8N568); conditions: DCAMKL2(h), read-out: Inhibition rate
# T7 construct: purchased Eurofins (Celle Lévescault)
# Procedure, shortened: as §1
# [8] = biological target: T8, 380 human recombinant protein kinases (Homo sapiens, UniProt Q96QT4); conditions: ChaK1(h), read-out: Inhibition rate
# T8 construct: purchased Eurofins (Celle Lévescault)
# Procedure, shortened: as §1
# [9] = biological target: T9, 380 human recombinant protein kinases (Homo sapiens, UniProt Q9UIK4); conditions: DAPK2(h), read-out: Inhibition rate
# T9 construct: purchased Eurofins (Celle Lévescault)
# Procedure, shortened: as §1
# T5 sequence (P53667 whole entry): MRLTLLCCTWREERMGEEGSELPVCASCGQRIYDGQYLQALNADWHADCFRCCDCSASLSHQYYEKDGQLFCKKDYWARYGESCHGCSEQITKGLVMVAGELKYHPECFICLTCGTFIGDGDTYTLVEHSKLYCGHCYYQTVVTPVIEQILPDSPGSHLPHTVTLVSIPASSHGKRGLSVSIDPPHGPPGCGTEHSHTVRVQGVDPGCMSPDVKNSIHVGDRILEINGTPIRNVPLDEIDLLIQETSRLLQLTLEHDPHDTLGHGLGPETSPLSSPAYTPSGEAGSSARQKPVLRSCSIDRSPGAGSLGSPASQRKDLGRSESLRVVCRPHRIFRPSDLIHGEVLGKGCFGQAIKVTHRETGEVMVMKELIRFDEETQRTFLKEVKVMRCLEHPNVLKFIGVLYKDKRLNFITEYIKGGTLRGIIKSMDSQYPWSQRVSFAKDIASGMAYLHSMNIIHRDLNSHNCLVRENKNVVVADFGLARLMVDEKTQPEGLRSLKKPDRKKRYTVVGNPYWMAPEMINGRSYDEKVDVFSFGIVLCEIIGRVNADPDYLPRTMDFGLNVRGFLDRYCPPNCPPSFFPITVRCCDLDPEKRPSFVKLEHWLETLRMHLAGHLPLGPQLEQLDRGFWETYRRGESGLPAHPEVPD
# T9 sequence (Q9UIK4 whole entry): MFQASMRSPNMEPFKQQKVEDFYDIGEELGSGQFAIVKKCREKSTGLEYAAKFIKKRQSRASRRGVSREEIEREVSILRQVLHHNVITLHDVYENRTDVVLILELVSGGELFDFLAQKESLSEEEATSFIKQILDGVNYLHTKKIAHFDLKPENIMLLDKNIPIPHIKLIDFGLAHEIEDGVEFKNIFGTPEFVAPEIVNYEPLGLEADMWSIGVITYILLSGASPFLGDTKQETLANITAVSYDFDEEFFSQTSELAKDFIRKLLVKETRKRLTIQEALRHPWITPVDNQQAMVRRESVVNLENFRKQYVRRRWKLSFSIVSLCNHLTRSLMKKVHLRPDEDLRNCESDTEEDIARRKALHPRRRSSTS
# T3 sequence (P24723 whole entry): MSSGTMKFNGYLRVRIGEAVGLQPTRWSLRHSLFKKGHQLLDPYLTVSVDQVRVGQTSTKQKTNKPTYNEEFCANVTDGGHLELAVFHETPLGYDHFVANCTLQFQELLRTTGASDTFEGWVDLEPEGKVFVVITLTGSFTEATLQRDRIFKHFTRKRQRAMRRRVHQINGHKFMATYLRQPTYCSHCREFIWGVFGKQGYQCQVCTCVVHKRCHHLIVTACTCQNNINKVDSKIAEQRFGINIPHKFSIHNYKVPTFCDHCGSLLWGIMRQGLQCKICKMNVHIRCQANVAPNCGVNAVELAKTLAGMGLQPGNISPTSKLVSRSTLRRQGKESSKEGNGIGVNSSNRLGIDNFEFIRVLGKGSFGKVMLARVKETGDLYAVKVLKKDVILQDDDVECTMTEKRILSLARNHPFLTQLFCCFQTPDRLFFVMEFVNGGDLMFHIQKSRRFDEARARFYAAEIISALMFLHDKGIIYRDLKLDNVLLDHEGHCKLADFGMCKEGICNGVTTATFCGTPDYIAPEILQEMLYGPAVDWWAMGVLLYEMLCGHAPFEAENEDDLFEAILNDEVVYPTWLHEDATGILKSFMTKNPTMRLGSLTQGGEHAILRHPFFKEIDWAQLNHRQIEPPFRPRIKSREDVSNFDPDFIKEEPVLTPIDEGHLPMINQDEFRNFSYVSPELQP
# T6 sequence (Q00534 whole entry): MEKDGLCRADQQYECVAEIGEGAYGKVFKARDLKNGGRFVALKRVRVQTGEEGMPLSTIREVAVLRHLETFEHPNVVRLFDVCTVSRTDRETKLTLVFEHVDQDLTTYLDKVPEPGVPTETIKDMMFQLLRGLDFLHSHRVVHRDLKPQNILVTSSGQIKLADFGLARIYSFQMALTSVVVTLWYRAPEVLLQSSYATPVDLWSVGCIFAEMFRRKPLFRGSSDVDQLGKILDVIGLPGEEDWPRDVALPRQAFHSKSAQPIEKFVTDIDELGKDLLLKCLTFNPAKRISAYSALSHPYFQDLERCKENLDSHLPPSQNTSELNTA
# T8 sequence (Q96QT4 whole entry): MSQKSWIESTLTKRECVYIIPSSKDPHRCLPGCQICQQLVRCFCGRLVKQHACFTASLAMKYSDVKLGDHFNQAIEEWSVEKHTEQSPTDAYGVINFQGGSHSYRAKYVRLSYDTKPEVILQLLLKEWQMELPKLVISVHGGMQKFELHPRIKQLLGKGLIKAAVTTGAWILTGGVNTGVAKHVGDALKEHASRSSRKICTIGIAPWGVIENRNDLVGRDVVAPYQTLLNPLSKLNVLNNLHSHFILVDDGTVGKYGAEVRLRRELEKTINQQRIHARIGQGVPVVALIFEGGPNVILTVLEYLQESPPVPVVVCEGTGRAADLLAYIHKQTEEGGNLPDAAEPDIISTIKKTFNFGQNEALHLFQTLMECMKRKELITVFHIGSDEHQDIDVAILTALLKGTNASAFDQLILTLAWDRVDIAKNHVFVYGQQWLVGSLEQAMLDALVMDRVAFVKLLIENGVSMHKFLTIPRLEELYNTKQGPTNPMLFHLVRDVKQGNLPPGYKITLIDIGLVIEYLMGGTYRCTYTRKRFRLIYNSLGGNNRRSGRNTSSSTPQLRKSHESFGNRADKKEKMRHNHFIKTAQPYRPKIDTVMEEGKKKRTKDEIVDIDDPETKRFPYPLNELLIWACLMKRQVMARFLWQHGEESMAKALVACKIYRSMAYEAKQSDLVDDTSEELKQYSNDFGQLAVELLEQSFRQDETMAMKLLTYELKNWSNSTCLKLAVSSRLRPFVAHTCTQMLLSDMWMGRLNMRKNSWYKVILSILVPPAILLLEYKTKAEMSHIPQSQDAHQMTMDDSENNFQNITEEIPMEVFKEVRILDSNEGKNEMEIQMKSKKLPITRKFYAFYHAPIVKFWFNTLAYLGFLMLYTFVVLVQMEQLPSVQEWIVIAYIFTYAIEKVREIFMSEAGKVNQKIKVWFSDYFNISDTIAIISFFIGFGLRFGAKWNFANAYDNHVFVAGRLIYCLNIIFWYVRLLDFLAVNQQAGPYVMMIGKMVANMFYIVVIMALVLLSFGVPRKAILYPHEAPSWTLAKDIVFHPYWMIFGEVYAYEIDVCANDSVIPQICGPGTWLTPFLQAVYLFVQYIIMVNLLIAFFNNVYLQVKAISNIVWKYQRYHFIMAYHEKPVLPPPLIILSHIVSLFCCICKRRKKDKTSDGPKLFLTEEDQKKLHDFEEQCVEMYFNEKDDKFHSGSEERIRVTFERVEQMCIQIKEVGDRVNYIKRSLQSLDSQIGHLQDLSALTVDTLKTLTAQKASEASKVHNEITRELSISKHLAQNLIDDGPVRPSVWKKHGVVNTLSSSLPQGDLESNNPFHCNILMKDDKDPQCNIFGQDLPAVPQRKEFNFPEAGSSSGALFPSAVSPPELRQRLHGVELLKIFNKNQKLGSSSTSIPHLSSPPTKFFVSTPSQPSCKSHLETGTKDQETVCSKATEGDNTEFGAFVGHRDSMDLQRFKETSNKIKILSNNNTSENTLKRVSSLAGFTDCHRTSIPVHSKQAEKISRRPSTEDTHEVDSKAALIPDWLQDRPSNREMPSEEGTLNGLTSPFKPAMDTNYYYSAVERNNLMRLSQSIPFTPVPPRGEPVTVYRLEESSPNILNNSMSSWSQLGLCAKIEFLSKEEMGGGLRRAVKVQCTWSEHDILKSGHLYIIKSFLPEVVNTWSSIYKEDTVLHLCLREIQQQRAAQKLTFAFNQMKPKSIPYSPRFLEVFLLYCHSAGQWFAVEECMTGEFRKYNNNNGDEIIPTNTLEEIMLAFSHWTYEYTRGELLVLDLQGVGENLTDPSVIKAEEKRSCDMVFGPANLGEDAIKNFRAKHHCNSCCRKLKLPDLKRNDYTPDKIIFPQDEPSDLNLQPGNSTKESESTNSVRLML
smiles,measurement,setting,value
C=CC(=O)Nc1cc(-c2cc(-c3cc4c([nH]3)CCNC4=O)ccn2)ccc1OC(F)(F)F [compound 11],inhibition at 0.01 µM,[1]; 10 nM,7%
same,inhibition at 0.1 µM,[1]; 100 nM,7%
same,inhibition at 1 µM,[1]; 1000 nM,7%
same,inhibition at 0.01 µM,[2]; 10 nM,5%
same,inhibition at 0.1 µM,[2]; 100 nM,14%
same,inhibition at 1 µM,[2]; 1000 nM,6%
same,inhibition at 0.01 µM,[3]; 10 nM,1%
same,inhibition at 0.1 µM,[3]; 100 nM,10%
same,inhibition at 1 µM,[3]; 1000 nM,9%
same,inhibition at 0.01 µM,[4]; 10 nM,-6%
same,inhibition at 0.1 µM,[4]; 100 nM,0%
same,inhibition at 1 µM,[4]; 1000 nM,-1%
same,inhibition at 0.01 µM,[5]; 10 nM,-5%
same,inhibition at 0.1 µM,[5]; 100 nM,-2%
same,inhibition at 1 µM,[5]; 1000 nM,-2%
same,inhibition at 0.01 µM,[6]; 10 nM,2%
same,inhibition at 0.1 µM,[6]; 100 nM,6%
same,inhibition at 1 µM,[6]; 1000 nM,-3%
same,inhibition at 0.01 µM,[7]; 10 nM,4%
same,inhibition at 0.1 µM,[7]; 100 nM,4%
same,inhibition at 1 µM,[7]; 1000 nM,4%
same,inhibition at 0.01 µM,[8]; 10 nM,-7%
same,inhibition at 0.1 µM,[8]; 100 nM,1%
same,inhibition at 1 µM,[8]; 1000 nM,-5%
same,inhibition at 0.01 µM,[9]; 10 nM,8%
same,inhibition at 0.1 µM,[9]; 100 nM,3%
same,inhibition at 1 µM,[9]; 1000 nM,13%
